Assay results published in patent US8822500B2, “Tyrosine kinase inhibitors” (Chembridge Corporation, priority 2008, dated 2014).
Like-named read-outs stand apart in the source and are kept apart here.

What was measured:
ALK = ALK (Homo sapiens (Human), UniProt Q9UM73); assay: In vitro kinase activity assay (LANCE TR-FRET); type: biochemical;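 note: kinase reactions with ATP and a poly-GT peptide substrate, phosphorylated product read by time-resolved FRET, 11-point curve from 10^−11 to 10^−5 M, DMSO as negative control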
Chain of ALK (Q9UM73 19-1620): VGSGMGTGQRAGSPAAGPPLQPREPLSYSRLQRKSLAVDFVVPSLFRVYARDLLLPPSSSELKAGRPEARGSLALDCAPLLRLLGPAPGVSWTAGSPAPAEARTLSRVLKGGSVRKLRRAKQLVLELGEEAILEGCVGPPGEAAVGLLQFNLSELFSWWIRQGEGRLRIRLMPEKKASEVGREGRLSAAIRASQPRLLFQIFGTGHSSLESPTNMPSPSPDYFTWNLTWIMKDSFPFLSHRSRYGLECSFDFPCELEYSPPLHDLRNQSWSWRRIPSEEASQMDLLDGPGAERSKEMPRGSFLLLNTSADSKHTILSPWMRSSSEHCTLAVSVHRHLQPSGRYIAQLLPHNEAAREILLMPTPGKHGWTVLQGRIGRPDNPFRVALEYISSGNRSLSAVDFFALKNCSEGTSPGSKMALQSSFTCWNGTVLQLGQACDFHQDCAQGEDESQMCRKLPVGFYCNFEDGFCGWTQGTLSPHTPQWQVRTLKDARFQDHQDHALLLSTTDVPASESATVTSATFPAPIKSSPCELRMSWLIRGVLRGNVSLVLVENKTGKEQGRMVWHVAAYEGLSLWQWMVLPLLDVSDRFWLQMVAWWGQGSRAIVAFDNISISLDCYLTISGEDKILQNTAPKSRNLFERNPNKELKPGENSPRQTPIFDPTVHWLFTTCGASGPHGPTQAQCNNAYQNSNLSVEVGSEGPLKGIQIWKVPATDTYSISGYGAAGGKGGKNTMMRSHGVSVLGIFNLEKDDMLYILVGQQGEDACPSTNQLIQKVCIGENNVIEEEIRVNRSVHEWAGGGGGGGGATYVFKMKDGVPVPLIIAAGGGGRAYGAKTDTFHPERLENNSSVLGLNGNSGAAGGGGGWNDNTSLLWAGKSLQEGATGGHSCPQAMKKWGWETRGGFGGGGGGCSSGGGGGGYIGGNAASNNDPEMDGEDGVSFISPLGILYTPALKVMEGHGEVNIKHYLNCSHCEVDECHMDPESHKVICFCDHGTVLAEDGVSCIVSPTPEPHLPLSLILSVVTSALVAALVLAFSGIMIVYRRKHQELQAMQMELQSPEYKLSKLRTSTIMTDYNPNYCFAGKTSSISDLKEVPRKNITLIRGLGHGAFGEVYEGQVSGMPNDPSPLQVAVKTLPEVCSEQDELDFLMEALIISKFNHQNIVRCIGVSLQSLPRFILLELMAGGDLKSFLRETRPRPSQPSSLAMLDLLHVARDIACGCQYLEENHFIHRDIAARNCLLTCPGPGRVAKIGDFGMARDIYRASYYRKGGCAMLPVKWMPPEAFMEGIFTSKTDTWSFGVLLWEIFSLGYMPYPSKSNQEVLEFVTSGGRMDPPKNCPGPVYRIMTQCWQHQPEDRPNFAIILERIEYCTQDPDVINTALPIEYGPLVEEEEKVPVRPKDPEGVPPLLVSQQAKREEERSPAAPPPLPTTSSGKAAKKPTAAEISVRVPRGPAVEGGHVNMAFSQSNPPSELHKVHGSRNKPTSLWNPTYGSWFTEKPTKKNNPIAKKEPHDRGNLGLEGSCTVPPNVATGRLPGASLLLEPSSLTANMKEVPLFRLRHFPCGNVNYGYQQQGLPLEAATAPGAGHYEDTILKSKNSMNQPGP

TrkA = TrkA (Homo sapiens (Human), UniProt P04629); assay: In vitro kinase activity assay (LANCE TR-FRET); type: biochemical;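 note: kinase reaction with poly-GT peptide substrate and ATP, phosphorylated product quantified by time-resolved FRET, eleven-point dose curves from 10^−11 to 10^−5 M in triplicate, DMSO as negative control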
Chain of TrkA (P04629 33-796): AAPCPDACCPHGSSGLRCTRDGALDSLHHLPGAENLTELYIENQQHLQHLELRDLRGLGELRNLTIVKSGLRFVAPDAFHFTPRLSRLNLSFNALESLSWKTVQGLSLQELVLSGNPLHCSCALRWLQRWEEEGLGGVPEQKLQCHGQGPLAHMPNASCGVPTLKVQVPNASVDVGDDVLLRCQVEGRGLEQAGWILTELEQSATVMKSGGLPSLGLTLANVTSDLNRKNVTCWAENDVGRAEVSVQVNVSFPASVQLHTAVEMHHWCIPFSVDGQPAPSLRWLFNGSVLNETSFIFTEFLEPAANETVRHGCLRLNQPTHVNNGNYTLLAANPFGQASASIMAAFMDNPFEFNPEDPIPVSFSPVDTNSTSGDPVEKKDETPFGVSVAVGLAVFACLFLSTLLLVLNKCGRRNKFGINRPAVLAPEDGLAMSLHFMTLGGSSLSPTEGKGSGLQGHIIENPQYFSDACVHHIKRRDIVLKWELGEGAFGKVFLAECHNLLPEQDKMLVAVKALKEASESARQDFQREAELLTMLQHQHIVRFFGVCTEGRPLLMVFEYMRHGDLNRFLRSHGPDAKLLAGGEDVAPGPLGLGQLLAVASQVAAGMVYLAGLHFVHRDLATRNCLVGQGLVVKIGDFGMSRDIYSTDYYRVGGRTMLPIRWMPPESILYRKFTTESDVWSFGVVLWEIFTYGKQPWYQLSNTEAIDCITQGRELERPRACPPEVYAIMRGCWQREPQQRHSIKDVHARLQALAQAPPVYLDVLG

ROS = ROS (Homo sapiens (Human), UniProt P08922); assay: In vitro kinase activity assay (LANCE TR-FRET); type: biochemical
RET = RET (Homo sapiens (Human), UniProt P07949); assay: In vitro kinase activity assay (LANCE TR-FRET); type: biochemical
cMET = cMET (Homo sapiens (Human), UniProt P08581); assay: In vitro kinase activity assay (LANCE TR-FRET); type: biochemical
Chain of cMET (P08581 25-1390): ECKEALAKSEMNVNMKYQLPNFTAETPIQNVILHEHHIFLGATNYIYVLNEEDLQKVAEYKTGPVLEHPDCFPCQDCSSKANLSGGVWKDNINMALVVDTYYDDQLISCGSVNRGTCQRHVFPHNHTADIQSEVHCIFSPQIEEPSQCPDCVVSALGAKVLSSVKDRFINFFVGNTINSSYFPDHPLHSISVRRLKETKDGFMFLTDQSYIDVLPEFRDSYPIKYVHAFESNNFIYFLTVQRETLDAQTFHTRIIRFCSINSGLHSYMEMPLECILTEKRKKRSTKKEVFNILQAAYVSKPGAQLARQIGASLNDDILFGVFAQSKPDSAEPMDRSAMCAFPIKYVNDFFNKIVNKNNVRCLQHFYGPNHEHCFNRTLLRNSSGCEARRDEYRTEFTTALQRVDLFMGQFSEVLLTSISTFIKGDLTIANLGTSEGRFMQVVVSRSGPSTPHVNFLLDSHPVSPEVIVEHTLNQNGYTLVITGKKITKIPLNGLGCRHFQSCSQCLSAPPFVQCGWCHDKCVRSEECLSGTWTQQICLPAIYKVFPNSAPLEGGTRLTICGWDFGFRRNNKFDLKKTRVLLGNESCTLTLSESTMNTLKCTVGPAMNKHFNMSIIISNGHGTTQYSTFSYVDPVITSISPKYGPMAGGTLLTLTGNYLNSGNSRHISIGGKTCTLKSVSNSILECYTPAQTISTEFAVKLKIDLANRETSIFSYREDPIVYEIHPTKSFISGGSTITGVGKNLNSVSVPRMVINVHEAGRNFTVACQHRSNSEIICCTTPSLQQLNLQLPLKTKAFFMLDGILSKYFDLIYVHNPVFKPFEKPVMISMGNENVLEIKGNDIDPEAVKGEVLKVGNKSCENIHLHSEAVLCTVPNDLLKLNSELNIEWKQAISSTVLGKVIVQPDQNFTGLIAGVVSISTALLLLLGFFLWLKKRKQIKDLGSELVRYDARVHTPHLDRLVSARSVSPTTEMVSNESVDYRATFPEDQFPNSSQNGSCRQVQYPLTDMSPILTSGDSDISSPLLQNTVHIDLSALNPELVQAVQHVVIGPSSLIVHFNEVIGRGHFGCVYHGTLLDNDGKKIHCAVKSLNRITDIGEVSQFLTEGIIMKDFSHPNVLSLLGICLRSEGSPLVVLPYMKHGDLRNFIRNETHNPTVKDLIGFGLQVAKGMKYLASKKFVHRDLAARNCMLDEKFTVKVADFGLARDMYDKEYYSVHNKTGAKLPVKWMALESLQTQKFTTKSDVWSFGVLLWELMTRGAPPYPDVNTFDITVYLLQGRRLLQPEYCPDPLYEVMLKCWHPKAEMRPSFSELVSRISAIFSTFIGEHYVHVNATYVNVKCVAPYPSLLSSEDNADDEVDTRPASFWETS

K299 lymphoma cells = assay: Cellular assay, 3 day cell viability (WST-1); type: cell-based; conditions: 72 h, 3 days
U937 lymphoma cells = assay: Cellular assay, 3 day cell viability (WST-1); type: cell-based; conditions: Homo sapiens, U-937, 72 h
SUDHL-1 lymphoma cells = assay: Cellular assay, 3 day cell viability (WST-1); type: cell-based; conditions: Homo sapiens, SU-DHL-1, 72 h
[1] = Metabolic stability, Phase I microsome reactions; type: in vitro ADME, mouse; conditions: 1.0 mg/ml microsomes; for microsomal CLint at 0.5 μM / half-life at 0.5 μM: mouse, liver microsomes, pH 7.4, Phase I only; for microsomal CLint at 0.5 μM: read-out: Mouse LM-P1 CL; for half-life at 0.5 μM: read-out: Mouse LM-P1 Half-life
in vitro [2] = conditions: human, microsomes; for microsomal CLint at 0.5 μM: pH 7.4, Human LM-P1 CL (ul/min/mg); for half-life at 0.5 μM: pH 7.4, Human LM-P1 Half-life (min)
in vitro [3] = conditions: rat, microsomes; for half-life at 0.5 μM: pH 7.4; for microsomal CLint at 0.5 μM: pH 7.4, Rat LM-P1 CL (ul/min/mg)
[4] = target: hERG (human ether-a-go-go related gene) potassium channel (Homo sapiens (Human), UniProt Q12809); assay: hERG potassium channel current, automated patch clamp (PatchXpress 7000A);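 note: Four-point series of 0.3, 3, 10 and 30 µM, two cells recorded per concentration, 5 min exposure at each level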
Chain of hERG (human ether-a-go-go related gene) potassium channel (Q12809 whole entry): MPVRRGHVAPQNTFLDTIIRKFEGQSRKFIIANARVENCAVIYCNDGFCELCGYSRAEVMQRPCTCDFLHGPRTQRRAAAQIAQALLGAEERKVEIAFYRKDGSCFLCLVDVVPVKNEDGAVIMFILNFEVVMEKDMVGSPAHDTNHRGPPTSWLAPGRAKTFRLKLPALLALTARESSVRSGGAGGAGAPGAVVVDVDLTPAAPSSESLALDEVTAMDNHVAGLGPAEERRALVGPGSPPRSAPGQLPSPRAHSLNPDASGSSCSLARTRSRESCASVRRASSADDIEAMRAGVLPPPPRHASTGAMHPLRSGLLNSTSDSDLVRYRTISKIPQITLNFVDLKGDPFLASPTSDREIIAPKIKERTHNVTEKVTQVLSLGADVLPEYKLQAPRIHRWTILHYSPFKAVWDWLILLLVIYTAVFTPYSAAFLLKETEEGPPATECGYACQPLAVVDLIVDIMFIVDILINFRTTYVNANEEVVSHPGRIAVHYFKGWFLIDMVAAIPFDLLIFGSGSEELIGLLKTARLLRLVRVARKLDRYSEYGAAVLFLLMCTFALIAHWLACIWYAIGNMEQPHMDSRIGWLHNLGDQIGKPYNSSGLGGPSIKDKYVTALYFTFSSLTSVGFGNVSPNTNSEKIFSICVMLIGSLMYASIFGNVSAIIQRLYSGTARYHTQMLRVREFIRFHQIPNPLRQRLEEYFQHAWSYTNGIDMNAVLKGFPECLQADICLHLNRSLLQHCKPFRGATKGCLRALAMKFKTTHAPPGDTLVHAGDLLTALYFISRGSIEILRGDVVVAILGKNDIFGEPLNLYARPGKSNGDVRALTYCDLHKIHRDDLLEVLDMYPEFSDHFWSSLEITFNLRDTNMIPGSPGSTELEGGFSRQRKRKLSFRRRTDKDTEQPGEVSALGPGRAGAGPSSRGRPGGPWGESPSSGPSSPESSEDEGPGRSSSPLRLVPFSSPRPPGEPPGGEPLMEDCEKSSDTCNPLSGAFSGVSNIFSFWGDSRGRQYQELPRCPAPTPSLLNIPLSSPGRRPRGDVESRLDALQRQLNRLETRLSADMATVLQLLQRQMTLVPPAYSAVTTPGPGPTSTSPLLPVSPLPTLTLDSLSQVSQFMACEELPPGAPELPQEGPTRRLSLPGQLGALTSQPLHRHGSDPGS

NB-1 neuroblastoma cells = assay: Cellular assay, 3 day cell viability (WST-1); type: cell-based; conditions: 72 h
[5] = Caco-2 cell permeation study; type: in vitro ADME; conditions: human; for Papp A→B at 2 h, 10 μM: Caco-2, pH 6.5, 10 μM, apical pH 6.5, 2 h; for Papp B→A at 2 h, 10 μM: Caco-2, pH 7.4, 10 μM, basolateral pH 7.4, 2 h; for efflux ratio at 2 h, 10 μM: Caco-2, Caco-2;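 for all read-outs here: Caco-2 monolayers grown for 21–28 days with integrity confirmed by TEER, apical buffer HBSS with MES, basolateral buffer HBSS with HEPES, compound levels quantified by LC/MS/MS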
Caco-2 cells = assay: Caco-2 cell permeation study; type: in vitro ADME; conditions: for Papp (10−6 cm/sec) A to B / Papp (10−6 cm/sec) B to A: 10 μM; for Papp (10−6 cm/sec) A to B: apical pH 6.5, 2 h; for Papp (10−6 cm/sec) B to A: basolateral pH 7.4, 2 h; for Efflux Ratio: Caco-2;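 for all read-outs here: Caco-2 monolayers grown for 21–28 days with integrity confirmed by TEER, apical buffer HBSS with MES, basolateral buffer HBSS with HEPES, compound levels quantified by LC/MS/MS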
[6] = Rat pharmacokinetics / bioavailability; type: in vivo
[7] = 3 days, WST-1, read-out: U937 IC50
[8] = 3 days, WST-1, read-out: SUDHL-1 IC50
[9] = male, Sprague-Dawley, plasma, po, 10 mg/kg P.O.

Row | SMILES | IC50 (ALK; read-out: ALK (nM) IC50) [nM] | IC50 (ALK; read-out: ALK IC50) [nM] | IC50 (TrkA; read-out: TrKA IC50) [nM] | IC50 (TrkA; read-out: TrkA (nM) IC50) [nM] | IC50 (ROS; read-out: ROS (nM) IC50) [nM] | IC50 (RET; read-out: RET (nM) IC50) [nM] | IC50 (cMET) [nM] | IC50 (K299 lymphoma cells; read-out: K299 IC50) [nM] | IC50 (U937 lymphoma cells; [7]) [µM] | microsomal CLint at 0.5 μM [1] [µL/min/mg] | half-life at 0.5 μM [1] [h] | microsomal CLint at 0.5 μM (in vitro [2]) [µL/min/mg] | half-life at 0.5 μM (in vitro [2]) [h] | half-life at 0.5 μM (in vitro [3]) [h] | microsomal CLint at 0.5 μM (in vitro [3]) [µL/min/mg] | IC50 [4] [nM] | Papp A→B at 2 h, 10 μM [5] [×10⁻⁶ cm/s] | Papp B→A at 2 h, 10 μM [5] [×10⁻⁶ cm/s] | Papp (10−6 cm/sec) B to A (Caco-2 cells) | efflux ratio at 2 h, 10 μM [5] | also measured
1 | CC(Cc1cc(F)ccc1F)Nc1cc[nH]c(=O)c1-c1nc2cc3c(cc2[nH]1)C(=O)N(CCN(C)C)C3 (racemic) [Compound 18, 2-(4-(1-(2,5-Difluorophenyl)propan-2-ylamino)-2-oxo-1,2-dihydropyridin-3-yl)-6-(2-(dimethylamino)ethyl)-6,7-dihydroimidazo[4,5-f]isoindole-5(1H)-one] | 9.16 | 9 | 4 | 4.33 | 0.688 | 13.1 | 1000 to 3000 | 265 | > 3 | 29.4 | 0.393 | < 5.8 | > 2 | 0.343 | 33.3 | 5420 |  |  |  |  | IC50 (SUDHL-1 lymphoma cells; [8]): 0.172 µM
2 | CC(Oc1cc(-c2cnn(C3CCNCC3)c2)cnc1N)c1c(Cl)ccc(F)c1Cl (racemic) [PF2341066, crizotinib, reference compound] |  |  |  |  |  |  |  |  |  |  |  |  |  |  |  |  | < 0.2 | 50.7 | 50.7 10−6 cm/sec |  | IC50 (U937 lymphoma cells; read-out: GTx-U937 IC50 (uM)): 1.67 µM; IC50 (U937 lymphoma cells; read-out: U937 IC50(μM)): 1.67 µM; IC50 (SUDHL-1 lymphoma cells; read-out: GTx-SUDHL-1 IC50 (uM)): 0.132 µM; IC50 (SUDHL-1 lymphoma cells; read-out: SUDHL-1 IC50(μM)): 0.132 µM; IC50 (NB-1 neuroblastoma cells; read-out: GTx-NB-1 IC50 (uM)): 0.167 µM; IC50 (NB-1 neuroblastoma cells; read-out: NB-1 IC50(μM)): 0.167 µM; Papp (10−6 cm/sec) A to B (Caco-2 cells; listed as Pfizer): >0.2 10−6 cm/sec; Papp (10−6 cm/sec) A to B (Caco-2 cells; listed as Pfizer (PF2341066)): <0.2 10−6 cm/sec; MRT ([6]; male, Sprague-Dawley, plasma, iv, 10 mg/kg I.V.): 1.88 h; Cmax [6, 9]: 58.3 ng/mL; Tmax [6, 9]: 5.25 h
3 | C[C@@H](Cc1c(F)c(F)cc(F)c1F)Nc1cc[nH]c(=O)c1-c1nc2cc3c(cc2[nH]1)C(=O)N(CCN(C)C)C3=O [Compound 2, (S)-6-(2-(Dimethylamino)ethyl)-2-(2-oxo-4-((1-(2,3,5,6-tetrafluorophenyl)propan-2-yl)amino)-1,2-dihydropyridin-3-yl)imidazo[4,5-f]isoindole-5,7(1H,6H)-dione] | 14 | 14 | 12 | 12.2 | 0.436 | 25.8 | 14 | 1920 | > 10 |  |  |  |  |  |  | > 30000 | < 0.2 | 3.6 |  | > 17.8 | IC50 (SUDHL-1 lymphoma cells; [8]): 2.74 µM; IC50 (NB-1 neuroblastoma cells; 3 days, WST-1, read-out: NB-1 IC50): 0.666 µM
4 | C[C@@H](Cc1c(F)c(F)cc(F)c1F)Nc1cc[nH]c(=O)c1-c1nc2cc3c(cc2[nH]1)C(=O)N(c1cccnc1)C3=O [Compound 12, (S)-2-(2-oxo-4-((1-(2,3,5,6-tetrafluorophenyl)propan-2-yl)amino)-1,2-dihydropyridin-3-yl)-6-(pyridin-3-yl)imidazo[4,5-f]isoindole-5,7(1H,6H)-dione] | 47.3 | 47 | 20 | 20.4 |  |  | > 10000 | > 10000 |  | < 5.8 | > 2 | < 5.8 | > 2 | > 2 | < 5.8 | > 3000 | < 0.2 | < 0.2 |  |  | 
5 | C[C@@H](Cc1c(F)c(F)cc(F)c1F)Nc1cc[nH]c(=O)c1-c1nc2cc3c(cc2[nH]1)C(O)N(c1cccnc1)C3=O (stereo partly drawn) [Compound 13, 7-Hydroxy-2-(2-oxo-4-4(((S)-1-(2,3,5,6-tetrafluorophenyl)propan-2-yl)amino)-1,2-dihydropyridin-3-yl)-6-(pyridin-3-yl)-6,7-dihydroimidazo[4,5-f]isoindol-5(1H)-one] |  |  | 6 |  |  |  | > 10000 | 787 | > 3 | 7.89 | 1.46 | 8.77 | 1.32 | 0.629 | 18.4 |  | < 0.2 | 1.9 |  | > 9.5 | 
6 | COC1c2cc3nc(-c4c(N[C@@H](C)Cc5c(F)c(F)cc(F)c5F)cc[nH]c4=O)[nH]c3cc2C(=O)N1c1cccnc1 (stereo partly drawn) [Compound 14, 7-Methoxy-2-(2-oxo-4-(((S)-1-(2,3,5,6-tetrafluorophenyl)propan-2-yl)amino)-1,2-dihydropyridin-3-yl)-6-(pyridin-3-yl)-6,7-dihydroimidazo[4,5-f]isoindol-5(1H)-one] | 174 | 174 | 42 | 41.6 |  |  | > 10000 |  |  | < 5.8 | > 2 | < 5.8 | > 2 | 1.71 | 6.76 |  |  |  |  |  | 
7 | CC(Cc1cc(F)ccc1F)Nc1cc[nH]c(=O)c1-c1nc2cc3c(cc2[nH]1)CN(C)C3=O (centres unmarked) [Compound 33, 2-(4-(1-(2,5-Difluorophenyl)propan-2-ylamino)-2-oxo-1,2-dihydropyridin-3-yl)-6-methyl-6,7-dihydroimidazo[4,5-f]isoindol-5(1H)-one] | 24.7 |  |  | 5.13 | 0.74 | 17.7 |  |  |  |  |  | 26.1 | 0.443 | 0.119 | 97.2 | > 10000 |  |  | 1.4 10−6 cm/sec | 0.8 | IC50 (ALK; read-out: GTx-ALK IC50): 25 nM; IC50 (TrkA; read-out: GTx-TrKA IC50): 5 nM; IC50 (ROS; read-out: GTx-ROS IC50): 0.7 nM; IC50 (RET; read-out: GTx-RET IC50): 18 nM; IC50 (K299 lymphoma cells; read-out: GTx-K299 IC50): 532 nM; IC50 (U937 lymphoma cells; 3 days, WST-1, read-out: GTx-U937 IC50): > 10 µM; IC50 (SUDHL-1 lymphoma cells; 3 days, WST-1, read-out: GTx-SUDHL-1 IC50): 0.867 µM; Mouse LM-P1 CL ([1]; Phase I only, 0.5 μM): 12.82 µL/min/mg; Papp (10−6 cm/sec) A to B (Caco-2 cells): 1.7 10−6 cm/sec; Efflux Ratio (Caco-2 cells): 0.5
8 | CC(Cc1c(F)c(F)cc(F)c1F)Nc1cc[nH]c(=O)c1-c1nc2cc3c(cc2n1C)C(=O)N(C)C3 (stereo not drawn) [Compound 43a, Cis-1,6-Dimethyl-2(2-oxo-4-(1-(2,3,5,6-tetrafluorophenyl)propan-2-ylamino)-1,2-dihydropyridin-3-yl)-6,7-dihydroimidazo[4,5-J]isoindol-5(1H)-one] | > 10000 |  |  | 6510 | 1200 | > 10000 |  |  |  |  |  |  |  |  |  |  |  |  |  |  | IC50 (ALK; read-out: GTx-ALK IC50): > 10000 nM; IC50 (TrkA; read-out: GTx-TrKA IC50): 6510 nM; IC50 (ROS; read-out: GTx-ROS IC50): 1120 nM; IC50 (RET; read-out: GTx-RET IC50): > 10000 nM
9 | CC(Cc1cc(F)ccc1F)Nc1cc[nH]c(=O)c1-c1nc2cc3c(cc2[nH]1)CNC3=O (centres unmarked) [Compound 53] | 34.1 |  |  | 7.81 | 1.88 | 16.9 |  |  |  |  |  | 25.3 | 0.457 | 0.145 | 78 |  | 1.25 | 8.24 | 7.41 10−6 cm/sec | 6.6 | Papp (10−6 cm/sec) A to B (Caco-2 cells): 0.76 10−6 cm/sec; Efflux Ratio (Caco-2 cells): 10.1; IV_AUC0-1440 Rat 10 mpk ([6]; 10 mg/kg I.V.): 531 µg·min/mL; PO_AUC0-1440 Rat 10 mpk ([6]; 10 mg/kg P.O.): 2.13 µg·min/mL; bioavailability ([6]; male, Sprague-Dawley, plasma, po, 10 mg/kg P.O., read-out: Rat F %): 0.402%
